Here are results for one molecule from patent US8629251B2, “Specific detection and quantification of phosphatidic acid using an Arabidopsis trigalactosyldiacylglycerol-4 (TGD4) protein” (Board of Trustees of Michigan State University, priority 2008, dated 2014).

Experiment [1] has as its target T1, Arabidopsis TGD4, DsRED-TGD4-His, full-length TGD4 1-479 (SEQ ID NO: 132) (Arabidopsis thaliana, UniProt Q9M903).
T1 sequence (Q9M903 1-479): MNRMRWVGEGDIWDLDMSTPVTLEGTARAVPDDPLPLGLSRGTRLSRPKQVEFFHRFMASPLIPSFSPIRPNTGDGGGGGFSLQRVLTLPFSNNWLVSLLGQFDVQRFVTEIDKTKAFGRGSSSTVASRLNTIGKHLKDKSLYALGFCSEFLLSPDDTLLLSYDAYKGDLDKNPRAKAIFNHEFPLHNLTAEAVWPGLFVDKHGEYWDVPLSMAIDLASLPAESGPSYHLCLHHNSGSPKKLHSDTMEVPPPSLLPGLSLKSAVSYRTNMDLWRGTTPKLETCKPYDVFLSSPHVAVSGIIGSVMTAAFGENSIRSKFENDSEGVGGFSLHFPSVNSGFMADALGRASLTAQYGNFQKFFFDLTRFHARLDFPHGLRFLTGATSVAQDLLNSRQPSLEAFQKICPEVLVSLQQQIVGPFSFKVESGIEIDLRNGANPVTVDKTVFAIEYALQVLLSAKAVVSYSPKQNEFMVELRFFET
In words: Liposome association assay, DsRED-TGD4-His. In kind it is binding. The conditions noted are these: pH range of 6.4-7.8, FIG. 18E. Here is the method:
Liposome Association Assay:
The liposome association assay was adapted from (Awai et al., 2006, Lu and Benning, 2009) with minor modifications. Dioleoyl-PtdCho and PtdOH with different acyl chain lengths and desaturation levels were used for making liposomes. In other liposomes 1-palmitoyl-2-(12-((7-nitro-2-1,3-benzoxadiazol-4-yl)amino)dodecanoyl)-sn-glycero-3-phosphate (NBD-PtdOH; Avanti, Alabaster, Ala.) was used. The lipids were mixed at indicated ratios to give a total lipid amount of 250 μg. The lipids were dried under a stream of nitrogen, resuspended in 0.5 ml TBS buffer with 0.2 M choline chloride and hydrated at 37° C. for 1 hour followed by vigorous vortexing for 2 minutes. The resulting multi-lamellar vesicles were centrifuged at 13,000×g for 10 minutes and then washed once with TBS buffer containing 0.2 M choline chloride. The liposomes were resuspended into 100 μl TBS buffer with 0.2 M choline chloride and incubated with 2 μg purified DsRED-TGD4-His protein and its derivatives. The protein liposome mixture was incubated on ice for 30 minutes followed by centrifugation at 13,000×g for 10 minutes and two washes with 500 μl TBS containing 0.2 M choline chloride. The resulting protein-liposome pellet was resuspended in 20 μl 2× Laemmli buffer (Laemmli, 1970) and processed by SDS-PAGE (Shapiro and Maizel, 1969).

In experiment [2] the target is Arabidopsis TGD2, DsRed fusion of the 25-mer minimal domain (residues 201-225, SEQ ID NO:12), K221A (Arabidopsis thaliana, UniProt Q9LTR2, K221A). As to the kind of experiment: Liposome-association assay, point mutant K221A of the minimal domain. The conditions noted are these: 100% PA liposomes, FIG. 4C. The experiment is classed as binding. Here is the method:
Some reports have identified that TGD2 PA-binding regions involve basic amino acids and/or tryptophan residues (10). […] Based on sequence similarity of TGD2 to its closely related homologs in plants and green algae, several charged and/or conserved amino acids were picked as potential interesting residues in the 25-mer minimal domain for possibly mediating interactions with PA. An alanine screen was then performed to evaluate these residues within a minimal PA binding region of TGD2 (i.e., for example, SEQ ID NO:12). Point mutations were generated in the 25-mer minimal domain and fused with DsRed to test PA binding by liposome-association assay using 100% PA liposomes.
The liposome association assay was performed as previously reported. (31). […]
Liposomes (200 μg) were mixed with purified DsRed-TGD2 fusion protein and TBS to make a final 100 μL solution. […] The liposome pellet mixed with sample buffer was analyzed by SDS-PAGE (28). […]
(§1) The protein band was visualized by chemiluminescent detection kit from Sigma. The autoradiography film was scanned, distinct protein bands were quantified using computer software Multi Gauge V3.0 (Fujifilm USA, Valhalla, N.Y.) and resulted data were plotted and analyzed by OriginPro8 (Origin lab corporation, Northampton, Mass.).

In experiment [3] the target is T2, Arabidopsis TGD2, DsRed-TGD2C T5 (residues 119-300, SEQ ID NO:28) (Arabidopsis thaliana, UniProt Q9LTR2).
T2 sequence (Q9LTR2 119-300): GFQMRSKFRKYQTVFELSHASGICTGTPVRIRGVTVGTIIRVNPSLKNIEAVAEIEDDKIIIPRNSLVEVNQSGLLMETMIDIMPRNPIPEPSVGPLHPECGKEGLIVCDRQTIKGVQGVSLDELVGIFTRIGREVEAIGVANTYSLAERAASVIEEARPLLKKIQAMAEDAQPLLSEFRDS
As to the kind of experiment: Liposome-association assay, TGD2C T5 (119-300). The experiment is classed as binding. The conditions noted are these: FIG. 3C. Here is the method: (§2) The liposome association assay was performed as previously reported. (31). Briefly, lipids (dioleoyl-phosphatidylcholine, DOPC or dioleoyl-PA, DOPA) were incubated in TBS (50 mM Tris-HCl, pH 7; 0.1 M NaCl) at 37° C. for an hour followed by vigorous vortexing for 5 min. The liposomes were precipitated at 20,000 g and washed twice with ice-cold TBS.
(§3) Liposomes (200 μg) were mixed with purified DsRed-TGD2 fusion protein and TBS to make a final 100 μL solution. The mixture was incubated at 30° C. for 30 min and washed twice with ice-cold TBS by centrifugation at 20,000 g at 4° C. The liposome pellet mixed with sample buffer was analyzed by SDS-PAGE (28). Immuno-detection of the His-tagged protein was accomplished using the above mentioned Penta-His antibody at 1:15,000 and the anti mouse antibody at 1:75,000 dilution.
as §1

The subject of experiment [4] is RafC (Raf-1 kinase). The conditions noted are these: literature (ref. 11); cited from earlier work.
Experiment [5] deals with T3, Arabidopsis TGD2, DsRed-TGD2C minimal domain (DR-25, TGD2C T8, residues 201-225, SEQ ID NO:12) (Arabidopsis thaliana, UniProt Q9LTR2).
T3 sequence (Q9LTR2 201-225): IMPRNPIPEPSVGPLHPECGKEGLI
In words: Liposome-association assay, minimal domain DR-25. In kind it is binding. The procedure:
as §2, §3, §1

Molecules are shown by their SMILES. “Also recorded” adds a separate entry of the source.

Arabidopsis TGD2, DsRed fusion of the 25-mer minimal domain (residues 201-225, SEQ ID NO:12), K221A, sequence (Q9LTR2 201-225 K221A): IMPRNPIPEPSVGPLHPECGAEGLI

With `CCCCCCCC/C=C\CCCCCCCC(=O)OC[C@H](COP(=O)(O)O)OC(=O)CCCCCCC/C=C\CCCCCCCC` [PA, phosphatidic acid], the “effect of pH on PtdOH binding” value in experiment [1] is on record as “not affected”. Further, the PA binding result in experiment [2] is “significantly reduced the amount of interaction with PA-liposomes”; in experiment [3], “strong binding”; in experiment [5] (PA liposomes, FIG. 4A) it was “sufficient to mediate specific binding to PA”. Also, the RafC-PA association in experiment [4] is recorded as 20 mol % PA. Moreover, in experiment [5] (mixed PA/PC liposomes, FIG. 5), the “cooperativity of PA binding” value is listed as “loses positive cooperativity; also recorded: not cooperative”.
